Patent US20220125837A1, “METHODS FOR CONTROLLED ELIMINATION OF THERAPEUTIC CELLS” (Bellicum Pharmaceuticals, Inc., priority 2014, published 2022)
Several values for one entry are separate records, joined by “and”; a condition that tells them apart may be missing. Equal values may be shown once.

Tests used:
Assay type in all cases: cell-based, human
[1] = system: gene-modified allodepleted cells (SFG.iCasp9.2A.CD19); experiment: Suicide gene function after extended culture and reactivation
Experimental: Cells were maintained in T cell medium containing 50 U/ml IL-2 until 22 days after transduction. A portion of cells was reactivated on 24-well plates coated with […] OKT3 and 1 μg/ml anti-CD28 (Clone CD28.2, BD Pharmingen, San Jose, Calif.) for 48 to 72 hours. CD19 expression and suicide gene function in both reactivated and non-reactivated cells were measured on day 24 or 25 post transduction.
To assess the stability of transgene expression and function, cells were maintained in T cell culture medium and low dose IL-2 (50 U/ml) until […] after transduction. A portion of cells was then reactivated with OKT3/anti-CD28. CD19 expression was analyzed by flow cytometry 48 to 72 hours later, and suicide gene function was assessed by treatment with 10 nM AP20187. The obtained are for cells from day 5 post transduction (ie, 1 day after CD 19 selection) and day 24 post transduction, with or without 48-72 hours of reactivation (5 experiments). In 2 experiments, CD25 selection was performed after OKT3/aCD28 activation to further enrich activated cells. Error bars represent standard deviation. * indicates p<0.05 when compared to cells from day 5 post transduction. By day 24, surface CD19 expression fell from about 98%±1% to about 88%±4% (p<0.05) with a parallel decrease in mean fluorescence intensity (MFI) from 793±128 to 478±107 (p<0.05) (see FIG. 13B). Similarly, there was a significant reduction in suicide gene function: residual viability was 19.6±5.6% following treatment with AP20187; after correction for baseline viability of 54.8±20.9%, this equated to killing efficiency of only 63.1±6.2%.
To determine whether the decrease in transgene expression with time was due to reduced transcription following T cell quiescence or to elimination of transduced cells, a portion of cells were reactivated on day 22 post transduction with OKT3 and anti-CD28 antibody. […] CD19 expression increased from about 88%±4% to about 93%±4% (p<0.01) and CD19 MFI increased from 478±107 to 643±174 (p<0.01). […] 2±1.2%, which was the same as killing efficiency on day 5 post transduction (93.1±3.5%). Killing of the CD25 negative fraction was 78.6±9.1%.

non-transduced cells = experiment: Viability of non-transduced cells with AP20187; conditions: n=6
Experimental: Suicide gene functionality was assessed by adding a small molecule synthetic homodimerizer, AP20187 (Ariad Pharmaceuticals; Cambridge, Mass.), at 10 nM final concentration the day following CD19 immunomagnetic selection. Cells were stained with annexin V and 7-amino-actinomycin (7-AAD)(BD Pharmingen) at 24 hours and analyzed by flow cytometry. Cells negative for both annexin V and 7-AAD were considered viable, cells that were annexin V positive were apoptotic, and cells that were both annexin V and 7-AAD positive were necrotic. The percentage killing induced by dimerization was corrected for baseline viability as follows: Percentage killing=100%−(% Viability in AP20187-treated cells÷% Viability in non-treated cells).
The day following immunomagnetic selection, 10 nM of the chemical inducer of dimerization, AP20187, was added to induce apoptosis, which appeared within 24 hours.

[2] = system: F-Casp9M.I.GFPhigh-transduced T cells; experiment: Annexin V/7-AAD staining of iCasp9M GFPhigh T cells after CID
Experimental: CID (AP20187; ARIAD Pharmaceuticals) at indicated concentrations was added to transfected 293T cells or transduced CTLs. Adherent and nonadherent cells were harvested and washed with annexin binding buffer (BD Pharmingen, San Jose, Calif.). Cells were stained with annexin-V and 7-amino-actinomycin D (7-AAD) for 15 minutes according to the manufacturer's instructions (BD Pharmingen). Within 1 hour after staining, cells were analyzed by flow cytometry using CellQuest software (Becton Dickinson).
A representative example of 3 separate experiments is shown.
For clinical applications therefore, versions of the expression constructs with selectable markers that allow selection for high copy number, high levels of expression, or both high copy number and high levels of expression may be desirable. […] The dose response remained unchanged for at least 4 weeks after transduction.

[3] = system: iCasp9M-transduced EBV-CTLs; experiment: CID-induced elimination of GFP+ iCasp9M-transduced EBV-CTLs (flow cytometry)
[4] = T cells selected for high expression, overnight 10 nM CID, mean
[5] = representative example of 3 experiments

## CC[C@H](C(=O)N1CCCC[C@H]1C(=O)O[C@H](CCc1ccc(OC)c(OC)c1)c1cccc(OCC(=O)NCC(CNC(=O)COc2cccc([C@@H](CCc3ccc(OC)c(OC)c3)OC(=O)[C@@H]3CCCCN3C(=O)[C@@H](CC)c3cc(OC)c(OC)c(OC)c3)c2)CN(C)C)c1)c1cc(OC)c(OC)c(OC)c1 [AP20187]
[1]; CD25 negative fraction
  killing: 78.6±9.1%
[1]; OKT3/aCD28-reactivated cells, day 24 or 25
  killing efficiency: ~84.6%±8.0%
[1]; day 5 post transduction
  killing efficiency: 93.1±3.5%
[1]; day 24 post transduction, non-reactivated
  killing efficiency: 63.1±6.2% and ~63.1%±6.2%
[1]; day 24 post transduction, non-reactivated, 10 nM
  residual viability following treatment with AP20187: 19.6±5.6%
non-transduced cells
  viability of non-transduced cells with AP20187: about 86%±9%
[2]; [4]
  apoptotic (annexin-V+/7-AAD−) phenotype: 64%
  necrotic (annexinV+/7-AAD+) phenotype: 30%
[2]; [5]
  apoptotic phenotype (annexin V+, 7-AAD−): 64%
  necrotic phenotype (annexin V+, 7-AAD+): 32%
[3]; CTLs that survived CID treatment
  reduction in mean fluorescence intensity of GFP after CID: 70%
[3]; F-Casp9M.I.GFPhigh, survival of GFP+ cells on day 7
  CID sufficient to obtain the maximal deletion effect: 1 nM
[3]; iCasp9M-transduced CTLs, GFPhigh, 1:1 with nontransduced, 10 nM CID, day 7
  Elimination of GFP+ cells: 99.2%+/−0.14%
[3]; single 10-nM dose of CID, unselected iCasp9M CTLs, 5 donors
  GFP+ cells eliminated: 91.3%
